Test results reported in patent US11980633B2, “Method for treating cancer using a combination of DNA-damaging agents and DNA-PK inhibitors” (Vertex Pharmaceuticals Incorporated, priority 2016, dated 2024).

Legend:
OVCAR-3 Xenograft Tumors = experiment: OVCAR-3 cell line xenograft: DOXIL given 16 hr prior to Compound B-2 CoX (PO); tumor growth; assay type: in vivo, nu/nu nude mice; conditions: 100 mg/kg Compound B-2 CoX qd×2 alone
Source text: (§1) Statistical significance was defined as P<0.05.

HCT 116 Xenograft Tumors = experiment: HCT 116 cell line xenograft: DOXIL given 16 hr prior to Compound B-2 CoX (PO), 2 weekly cycles; tumor growth (studies of Tables 4-9); assay type: in vivo, nu/nu nude mice; conditions: Table 5 study; 100 mg/kg Compound B-2 CoX qd×4 alone
Protocol: as §1
Effect of Compound B-2 CoX Schedule in Combination with DOXIL® in HCT 116 Xenograft Tumors: The HCT 116 xenograft tumor model was selected for further examination of the effect of schedule and dose of Compound B-2 CoX in combination with DOXIL®. In this study, the effect of dosing Compound B-2 CoX qd for 2, 3, and 4 days following DOXIL® was examined.
Dose Response of DOXIL® alone and Dose Response of Compound B-2 CoX in Combination with 6 mg/kg DOXIL® in HCT 116 Xenograft Tumors: Additional investigations were conducted to determine the dose response of DOXIL® alone (1.5-6 mg/kg) in the HCT 116 xenograft tumor model. Further, a dose response of Compound B-2 CoX (25-100 mg/kg) in combination with 6 mg/kg DOXIL® was also assessed. Lastly, the efficacy of 1.5 mg/kg DOXIL® in combination with 200 mg/kg Compound B-2 CoX was also examined.
Result of reexamination of Compound B-2 CoX Dose and Schedule in Combination with DOXIL® in an HCT 116 Xenograft Mouse Model.
Examination of the Effect of Compound B-2 CoX Dose in Combination with 3 mg/kg DOXIL® in an HCT 116 Xenograft Tumor Model: A 3 mg/kg DOXIL® dose was examined in combination with a range of doses of Compound B-2 CoX (50-200 mg/kg) to identify the response of HCT 116 xenograft tumors to these combinations. […]

[1] = test system: pKAP1 and pH2AX levels in MDA-MB-436 and MDA-MB-468 breast cancer cells; experiment: pKAP1 and pH2AX immunoblot, Compound B-2 and doxorubicin in MDA-MB-436 and MDA-MB-468 cells; assay type: cell-based, human; conditions: 500 nM doxorubicin alone; at 4 h, remained elevated to 8 h
Protocol: (§2) Materials and Methods. The human cancer cell lines A549 (CCL-185), DU4475 (HTB-123), MDA-MB-436 (HTB-130), and MDA-MB-468 (HTB-132) were obtained from American Type Culture Collection (ATCC; Manassas, VA). A 10 mM stock solution of Compound B-1 or Compound B-2 was prepared in DMSO and stored at −20° C. Etoposide and doxorubicin were purchased from Sigma-Aldrich (St. Louis, MO).
(§3) The A549 human lung cancer cell line was purchased from ATCC and was cultured in DMEM supplemented with 10% fetal bovine serum, 1× non-essential amino acids and 1× Penicillin/Streptomycin (complete medium). Cells were maintained at a subconfluent state by passaging every 2-3 days. Human breast cancer cells lines DU4475, MDA-MB-436, and MDA-MB-468 were purchased from ATCC and cultured in DMEM supplemented with 10% fetal bovine serum, 1× Glutamax and Penicillin/Streptomycin. Cells were maintained at a subconfluent state by passaging every 2-3 days.
(§4) Compound B-1 and Compound B-2 used in these experiments were not prepared as a co-crystals.
(§5) Breast cancer cell lines grown in 24-well (Costar, catalog #3526) or 6-well (Costar, catalog #3516) tissue culture plates to 70-80% confluence were pre-incubated with 1 μM Compound B-2 or DMSO for 15 min. Doxorubicin was added to a final concentration of either 100 nM or 500 nM from a 1000× stock prepared in DMSO. Cells were then incubated for the indicated amount of time and harvested for analysis.
Cell Lysis and Western Blot Analysis. […]
To determine that enhancement of DNA damage by concurrent treatment of cells with Compound B-2 and doxorubicin was not specific to DU4475 cells, two additional breast cancer cell lines, MDA-MB-436 and MDA-MB-468, were also pre-incubated with 1 μM Compound B-2 for 15 min, followed by addition of 500 nM doxorubicin. Cells were harvested at various time points following doxorubicin addition and analyzed for levels of pKAP1 and pH2AX by immunoblotting.

[2] = test system: pKAP1 and pH2AX levels in DU4475 breast cancer cells; experiment: pKAP1 and pH2AX immunoblot, Compound B-2 and doxorubicin in DU4475 breast cancer cells; assay type: cell-based, human; conditions: doxorubicin alone, 100 nM or 500 nM; from 4-8 h, elevated up to 24 h at 500 nM only
Protocol: as §2, §3, §4, §5
Cell Lysis and Western Blot Analysis. Cells treated with Compound B-1 or Compound B-2 in combination with chemotherapeutic agents were washed once with ice-cold PBS and then dissolved in 150 μL/well 2×SDS-PAGE sample buffer, transferred to microfuge tubes, and heated in a 105° C. heat block for 5 min for immunoblotting. A 15-μL aliquot of each SDS-PAGE sample was loaded onto 12-lane 4 20% Tris-Glycine gels and the gels were run at 125v constant voltage until the dye front reached the bottom (approximately 2 h). Following electrophoresis, separated proteins in the gels were transferred to a nitrocellulose membrane. Transfer was carried out for 2 h at 1.5 A constant current in a cold room using a Hoefer transfer apparatus (Model TE42 or TE62, Hoefer Inc, Holliston, MA) according to manufacturer's instructions. Following transfer, nitrocellulose membranes were incubated with blocking buffer for 1 h at room temperature. The nitrocellulose membranes were cut and the bottom halves were incubated overnight with 2 primary antibodies, anti-pH2AX (1/1000) and anti-total H2AX (1/1000). After washing, the appropriate fluorescently labeled secondary antibodies were added to the membranes and then imaged with pH2AX on the 800 (green) channel and total H2AX on the 700 (red) channel. The top halves of the membranes were probed sequentially for pKAP1 (1/1000) on the 700 (red) channel and then probed for total KAP1 (1/1000) and GAPDH (1/2500) on the 800 (green) channel. Image acquisition was conducted using an Odyssey fluorescent imaging system (Li-Cor Biosciences; Lincoln, NE).
Compound B-2 and doxorubicin combination in breast cancer cell lines in culture. To examine the effect of DNA-PK inhibition on pKAP1 and pH2AX in vitro, DU4475 breast cancer cells were pre-incubated with 1 μM Compound B-2 for 15 min, followed by addition of 100 nM or 500 nM doxorubicin. Cells were harvested at various time points following doxorubicin addition and analyzed for levels of pKAP1 and pH2AX by immunoblotting.

SMILES | % T/C (Day 43) (OVCAR-3 Xenograft Tumors) [%] | % T/C (Day 19) (HCT 116 Xenograft Tumors) [%] | pKAP1 and pH2AX level [1] | pKAP1 and pH2AX level [2]
[2H]c1nc(C)nc([2H])c1-c1cc(NC[C@@H](C)c2cccc3c(C(=O)NC)ccnc23)ncn1 [Compound B-2 CoX] | 83.2 | 106 |  | 
COc1cccc2c1C(=O)c1c(O)c3c(c(O)c1C2=O)C[C@@](O)(C(=O)CO)C[C@@H]3O[C@H]1C[C@H](N)[C@H](O)[C@H](C)O1 [Doxorubicin, reference compound] |  |  | increased level | increased level
